We go through 80 compounds from the supplement of paper PMC8372320.
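Note: aromatic molecules in triethylamine/methanol/water with Pt photoreduced in situ, irradiated 3 h under a 1 sun AM 1.5G solar simulator (350–1000 nm), H2 quantified by headspace gas chromatography; listed molecule itself used as the photocatalyst at 5 mg per vial.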

A short description of the series: photocatalytic hydrogen evolution rate (per 5 mg catalyst); higher = more photocatalytic H2 evolution; extreme values may be limits of the assay. As to conditions: catalyst mass (mg): 5; Pt cocatalyst (wt%): 3; sacrificial medium: triethylamine/methanol/water 1:1:1.
For the compound `O=Cc1ccnc(-c2cc(C=O)ccn2)c1`, the “photocatalytic hydrogen evolution rate” value was 0 µmol/h.
For the compound `O=C1c2c(O)cccc2Cc2cccc(O)c21`, the “photocatalytic hydrogen evolution rate” value was found to be 0 µmol/h.
For the compound `CC(=O)c1ccc([N+](=O)[O-])cc1`, the “photocatalytic hydrogen evolution rate” value was found to be 0 µmol/h.
For `COc1ccc(OC)c(C=O)c1`, the “photocatalytic hydrogen evolution rate” value was 10.9 µmol/h.
With `COc1cc(C#N)c(C#N)cc1OC`, the “photocatalytic hydrogen evolution rate” value is 0 µmol/h.
The result for `Nc1ccc(-c2nnc(-c3ccc(N)cc3)nn2)cc1` reads 0 µmol/h; that for `Cn1c2ccc(Br)cc2c(=O)c2cc(Br)ccc21`, 9.21 µmol/h.
On to `N#Cc1c[nH]c2ccc(Br)cc12`, for which the “photocatalytic hydrogen evolution rate” value worked out at 0.015 µmol/h.
The result for `Nc1cc(Br)ccc1Br` reads 0 µmol/h; that for `N#Cc1cc(C#N)ncn1`, 0 µmol/h; that for `N#Cc1c(F)c(F)c(F)c(F)c1C#N`, 4.24 µmol/h.
`O=Cc1cc(Br)cc(Br)c1`: the “photocatalytic hydrogen evolution rate” value came out at 0.234 µmol/h.
The value for `N#Cc1ccc(Br)cc1` was 0 µmol/h; that for `N#Cc1cccnc1C#N` was 0 µmol/h.
The value for `c1cc2ccc3ccc4ccc5ccc6ccc1c1c2c3c4c5c61` was 0 µmol/h; that for `N#Cc1cncc(Br)n1` was 0.0873 µmol/h.
The value for `O=C1Nc2c(Br)cc(Br)cc2C1=O` was 0.874 µmol/h; that for `O=C(O)c1ccccc1[N+](=O)[O-]` was 0 µmol/h; that for `Cc1cc(C=O)c(O)c(C=O)c1` was 7.62 µmol/h.
For the compound `N#Cc1cc(N)cc(F)c1`, the “photocatalytic hydrogen evolution rate” value was determined as 0 µmol/h.
For the compound `Brc1ccc(-c2ccc(-c3ccc(Br)s3)c3nsnc23)s1`, the “photocatalytic hydrogen evolution rate” value was found to be 0.174 µmol/h.
The value for `Oc1c(Br)cc(Br)cc1Br` was 0.0139 µmol/h; that for `CC1(C)c2cc(Br)ccc2-c2ccc(Br)cc21` was 0.0799 µmol/h; that for `O=Cc1ccc(N(c2ccccc2)c2ccc(-c3ccc(N(c4ccccc4)c4ccc(C=O)cc4)cc3)cc2)cc1` was 0 µmol/h.
On to `N#Cc1cccc(C#N)n1`, for which the “photocatalytic hydrogen evolution rate” value came to 0 µmol/h.
Take `N#Cc1c2ccccc2cc2ccccc12`: the “photocatalytic hydrogen evolution rate” value was 0.294 µmol/h.
Consider `O=c1[nH]cc(Br)nc1Br`, for which the “photocatalytic hydrogen evolution rate” value is 0 µmol/h.
On to `c1ccc(N=C(Nc2ccccc2)Nc2ccccc2)cc1`, for which the “photocatalytic hydrogen evolution rate” value amounted to 0 µmol/h.
`Brc1c2c(c(Br)c3nsnc13)N=S=N2`: the “photocatalytic hydrogen evolution rate” value was 0 µmol/h.
The value for `N#CCc1nc2ccccc2s1` was 0 µmol/h.
In the case of `O=C1c2ccccc2C(=O)c2c(Cl)cccc21`, the “photocatalytic hydrogen evolution rate” value was 0 µmol/h.
On to `OB(O)c1cc(Br)cc(Br)c1`, for which the “photocatalytic hydrogen evolution rate” value was 0 µmol/h.
The value for `O=C(O)[C@@H]1CCC(=O)N1C(=O)OCc1ccccc1` was 0 µmol/h.
In the case of `O=Cc1cc(O)c(C=O)cc1O`, the “photocatalytic hydrogen evolution rate” value came to 0 µmol/h.
Turning to `N#Cc1cccc(F)c1F`, the “photocatalytic hydrogen evolution rate” value amounted to 0 µmol/h.
Take `N#Cc1cc(Br)ccn1`: the “photocatalytic hydrogen evolution rate” value was 0 µmol/h.
The result for `Brc1ccc(-c2ccc(Br)s2)s1` reads 0 µmol/h.
Take `Cc1[nH]c(C=O)cc1C#N`: the “photocatalytic hydrogen evolution rate” value worked out at 0 µmol/h.
Turning to `N#Cc1ccc(Br)nc1`, the “photocatalytic hydrogen evolution rate” value was 0 µmol/h.
The value for `O=C1OC2(c3ccccc31)c1cc(I)c(O)c(I)c1Oc1c2cc(I)c(O)c1I` was 28.3 µmol/h.
As for `O=Cc1ccc2nccnc2c1`, the “photocatalytic hydrogen evolution rate” value turned out to be 0 µmol/h.
The result for `O=Cc1cc(F)c(O)c(F)c1` reads 0.191 µmol/h; that for `O=C(O)c1ccc(-c2ccc(C(=O)O)cc2)cc1`, 0.0704 µmol/h; that for `Fc1ccc(-c2nc(-c3ccccc3)nc(-c3ccccc3)n2)cc1`, 0 µmol/h.
The result for `Cc1ccc(N(c2ccc(C)cc2)c2ccc(C=O)cc2)cc1` reads 0.0671 µmol/h; that for `CC(C)(C)c1cc2ccc3c(Br)cc(Br)c4ccc(c1)c2c34`, 0.121 µmol/h; that for `CN1C(=O)c2ccc3c4ccc5c6c(ccc(c7ccc(c2c37)C1=O)c64)C(=O)N(C)C5=O`, 0 µmol/h.
The value for `CCCCCCCCCCCCC1(CCCCCCCCCCCC)c2cc(B(O)O)ccc2-c2ccc(B(O)O)cc21` was 0.132 µmol/h.
In the case of `Cc1cc(C#N)ncc1Br`, the “photocatalytic hydrogen evolution rate” value turned out to be 0 µmol/h.
For `COC(=O)c1cc(Br)oc1Br`, the “photocatalytic hydrogen evolution rate” value worked out at 0 µmol/h.
On to `N#Cc1c(F)c(F)c(F)c(F)c1F`, for which the “photocatalytic hydrogen evolution rate” value worked out at 0.0353 µmol/h.
`Brc1ccc2c3ccc(Br)cc3c3ccccc3c2c1`: the “photocatalytic hydrogen evolution rate” value turned out to be 0 µmol/h.
The value for `O=C1C(Cl)=C(Cl)C(=O)C(Cl)=C1Cl` was 0 µmol/h; that for `c1ccc2nc3ccccc3nc2c1` was 0 µmol/h.
On to `Cc1[nH]c(C)c(C=O)c1C=O`, for which the “photocatalytic hydrogen evolution rate” value stood at 0 µmol/h.
The result for `N#CCc1ccc(Cl)nc1` reads 0 µmol/h; that for `O=C(O)c1ccc(-c2cc(-c3ccc(C(=O)O)cc3)c(-c3ccc(C(=O)O)cc3)cc2-c2ccc(C(=O)O)cc2)cc1`, 0.052 µmol/h; that for `c1ccc2ccccc2c1`, 0 µmol/h.
As for `Brc1ccc(C(c2ccc(Br)cc2)(c2ccc(Br)cc2)c2ccc(Br)cc2)cc1`, the “photocatalytic hydrogen evolution rate” value is 0.0679 µmol/h.
For the compound `CCCCCCCCCCCCCCCCCCn1c(=O)c2ccc3sc4ccccc4c4ccc(c1=O)c2c34`, the “photocatalytic hydrogen evolution rate” value is 12.3 µmol/h.
As to `CNc1ccc(C#N)cc1`, the “photocatalytic hydrogen evolution rate” value amounted to 0 µmol/h.
The result for `Brc1ccc(N(c2ccc(Br)cc2)c2ccc(Br)cc2)cc1` reads 0.922 µmol/h.
With `N#Cc1ccnc(C#N)c1`, the “photocatalytic hydrogen evolution rate” value is 0 µmol/h.
As to `N#CCc1ccccc1C#N`, the “photocatalytic hydrogen evolution rate” value amounted to 0 µmol/h.
Regarding `Cc1ccc(C(=O)c2ccccc2)cc1`, the “photocatalytic hydrogen evolution rate” value was 3.44 µmol/h.
With `N#Cc1c(F)c(F)c(Br)c(F)c1F`, the “photocatalytic hydrogen evolution rate” value was found to be 0 µmol/h.
For `Brc1ccc2[nH]c3ccc(Br)cc3c2c1`, the “photocatalytic hydrogen evolution rate” value is 0 µmol/h.
For `O=Cc1sc(C=O)c(Br)c1Br`, the “photocatalytic hydrogen evolution rate” value was found to be 0.167 µmol/h.
The result for `Oc1ccc2c(c1)Oc1cc(O)ccc1C21c2ccccc2-c2ccccc21` reads 0 µmol/h; that for `Brc1cnc(Br)c2nsnc12`, 0 µmol/h.
The result for `O=C1c2ccccc2Cc2ccccc21` reads 0 µmol/h; that for `c1cc2cccc3c4cccc5cccc(c(c1)c23)c54`, 1.25 µmol/h.
The value for `c1cc2ccc3cccc4ccc(c1)c2c34` was 0.198 µmol/h; that for `O=Cc1ccc(C=O)c([N+](=O)[O-])c1` was 0 µmol/h; that for `N#Cc1nc2c3nc(C#N)c(C#N)nc3c3nc(C#N)c(C#N)nc3c2nc1C#N` was 0 µmol/h.
In the case of `O=Cc1cccc(-c2ccccn2)c1`, the “photocatalytic hydrogen evolution rate” value worked out at 2.43 µmol/h.
The value for `c1ccc(N(c2ccccc2)c2ccc(N(c3ccccc3)c3ccccc3)cc2)cc1` was 0 µmol/h; that for `COc1cc(C=O)ccc1O` was 0.0183 µmol/h.
The value for `O=Cc1ccc(S(=O)(=O)c2ccccc2)cc1` was 0.0425 µmol/h; that for `c1ccc2c(c1)Cc1cc3c(cc1-2)Cc1ccccc1-3` was 0.136 µmol/h.
